Structures can show the parent of a compound that is named as a salt.
Tested on: stationary phase Staphylococcus aureus
Experiment: In vitro efficacy test against stationary phase Staphylococcus aureus (CFU counts)
Format: cell-based, Staphylococcus aureus (Oxford)
Procedure: Staphylococcus aureus (Oxford); Gram positive; Reference strain.
Stationary phase growth of methicilin sensitive Staphylococcus aureus (MSSA) was carried out as follows:
Subculture of the bacterial strains on agar plates: Overnight S. aureus bacterial cultures were stored at −70° C. with 20% glycerol (cryoprotectant). A loopful of the frozen cells was streaked on a blood agar plate which was incubated at 37° C. overnight (or longer) as culture plate A. A single colony of each strain from the culture plate A was streaked on the blood agar plate which was incubated at 37° C. overnight (or longer) as culture plate B. The culture plate B was stored at 4° C. for a week and served as the initial inoculation plate.
Bacterial growth in broth culture: A single colony from culture plate B was inoculated in 10 ml of nutrient broth (No. 2, (Oxoid)), which was incubated overnight at 37° C. with continuous shaking at 120 rpm. 200 μl of the overnight culture was added into a 500 ml bottle containing 100 ml of nutrient broth. The 100 ml culture was incubated at 37° C. with continuous shaking for 6 to 7 days. Viability of the cultures is estimated by colony forming unit (CFU) counts at 2 hour intervals for the first 24 hours and 12 to 24 hours afterwards.
Colony Forming Unit (CFU) counts were performed as follows: From serial 10-fold dilutions of the cultures, 100 μl samples were added to one third of blood agar plates (Oxoid) in triplicate. CFUs were counted using an aCoLyte colony counter (Synbiosis) after incubation of the plates at 37° C. for 24 hours or longer.
7 day old stationary phase cultures were used. The stationary phase cultures were diluted to obtain CFU counts in the cell suspension of 10^6 to 10^7 CFU/ml. The cell suspension was used to test drug sensitivity.
HT61 was dissolved in DMSO to the stock concentration of 10 mg/ml.
HT00800059 was dissolved in H2O to the stock solution 10 mg/ml
The drugs were first diluted as follows: • 7.2 μl of HT61 at 10 mg/ml was added into 292.8 μl of H2O followed by diluting 2 fold, 3 times. • 57.6 μl of HT00800059 at 10 mg/ml was added into 242.4 μl of H2O followed by diluting 2 fold, 2 times. • 10 μl of HT00800059 from each dilution was added into the wells of a 96 well plate followed by the addition of 290 μl of bacterial cell suspension to make the final concentrations of HT00800059 at 64, 32 and 0 μg/ml. • […]
In combination of two drugs: 10 μl of HT61 from each dilution was added into the wells of a 96 well plate followed by the addition of 10 μl of HT00800059 from each dilution. […]

Q: `CCCCOc1ccc(C(=O)CCN2CCCCC2)cc1` [HT00800059, dyclonine (1-(4-Butoxyphenyl)-3-(1-piperidinyl)-1-propanone) hydrochloride] was tested. Which CFU killed (32 μg/ml, over 8 hours) did it give?
A: about 10^4 CFU

Q: And the CFU killed (64 μg/ml, over 6 hours)?
A: about 10^7 CFU
